Experiments:
Type in all cases: in vivo
[1] = tested on: Surinam grass (Brachiaria decumbens); test: Test B pre-/postemergence plant response
Summary of the method: (§1)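 Response scores were assigned visually after 13 to 15 days in a greenhouse, comparing treated pots with controls on a 0–100 scale where 100 denotes complete control. Preemergence treatments went onto freshly seeded loam/sand soil; postemergence treatments onto plants 2 to 18 cm tall.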

[2] = tested on: blackgrass (Alopecurus myosuroides); test: Test B pre-/postemergence plant response; conditions: Postemergence
Summary of the method: as §1

[3] = tested on: cocklebur (Xanthium strumarium); test: Test B pre-/postemergence plant response; conditions: Postemergence
Summary of the method: as §1

kochia (Kochia scoparia) = test: Test B pre-/postemergence plant response; conditions: Postemergence
Summary of the method: as §1

[4] = tested on: lambsquarters (Chenopodium album); test: Test B pre-/postemergence plant response; conditions: Postemergence
Summary of the method: as §1

[5] = tested on: pigweed (Amaranthus retroflexus); test: Test B pre-/postemergence plant response; conditions: Postemergence
Summary of the method: as §1

soybean (Glycine max) = test: Test B pre-/postemergence plant response
Summary of the method: as §1

[6] = tested on: velvetleaf (Abutilon theophrasti); test: Test B pre-/postemergence plant response
Summary of the method: as §1

[7] = tested on: wheat (Triticum aestivum); test: Test B pre-/postemergence plant response
Summary of the method: as §1

wild oat (Avena fatua) = test: Test B pre-/postemergence plant response; conditions: Postemergence
Summary of the method: as §1

[8] = tested on: canarygrass (Phalaris minor); test: Test B postemergence plant response; conditions: Postemergence
Summary of the method: (§2)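 Plants at the 1- to 4-leaf stage (2 to 18 cm tall), grown in pots of peat moss/vermiculite medium with wetting agent and starter nutrients, received postemergence applications of test chemicals. After 13 to 15 days in a greenhouse, injury was rated visually against untreated controls on a 0 (no effect) to 100 (complete control) scale.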

[9] = tested on: chickweed (Stellaria media); test: Test B postemergence plant response; conditions: Postemergence
Summary of the method: as §2

[10] = tested on: windgrass (Apera spica-venti); test: Test B postemergence plant response; conditions: Postemergence
Summary of the method: as §2

[11] = Postemergence, 31 g ai/ha, scale 0 to 100 (0 no effect, 100 complete control)
[12] = Postemergence, 62 g ai/ha, scale 0 (no effect) to 100 (complete control), 13 to 15 days
[13] = Postemergence, 125 g ai/ha, visual rating after 13 to 15 days, scale 0 (no effect) to 100 (complete control)
[14] = Postemergence, 250 g ai/ha, scale 0 to 100
[15] = Preemergence, 0 is no effect, 100 is complete control, rated after 13 to 15 days, application rate of this section not shown
[16] = 31 g ai/ha, scale 0 to 100 (0 no effect, 100 complete control)
[17] = 62 g ai/ha, scale 0 (no effect) to 100 (complete control), 13 to 15 days
[18] = 125 g ai/ha, visual rating after 13 to 15 days, scale 0 (no effect) to 100 (complete control)

5-[(2-hydroxy-6-oxo-1-cyclohexen-1-yl)carbonyl]-2,3-diphenyl-4(3H)-pyrimidinone [Compound 2]
Plant response rating, Surinam Grass [1, 11]: 0 | Plant response rating, Surinam Grass [1, 12]: 0 | Plant response rating, Surinam Grass [1, 13]: 10 | Surinam Grass plant response rating [1, 14]: 20 | Surinam Grass plant response rating (0 to 100 scale) [1, 15]: 0 | Plant response rating, Blackgrass [2, 16]: 0 | Plant response rating, Blackgrass [2, 17]: 0 | Plant response rating, Blackgrass [2, 18]: 5 | Blackgrass plant response rating ([2]; 250 g ai/ha, scale 0 to 100): 5 | Plant response rating, Cocklebur [3, 16]: 65 | Plant response rating, Cocklebur [3, 17]: 65 | Plant response rating, Cocklebur [3, 18]: 70 | Cocklebur plant response rating ([3]; 250 g ai/ha, scale 0 to 100): 85 | Plant response rating, Kochia (kochia (Kochia scoparia); [16]): 15 | Plant response rating, Kochia (kochia (Kochia scoparia); [17]): 20 | Plant response rating, Kochia (kochia (Kochia scoparia); [18]): 25 | Kochia plant response rating (kochia (Kochia scoparia); 250 g ai/ha, scale 0 to 100): 45 | Plant response rating, Lambsquarters [4, 16]: 70 | Plant response rating, Lambsquarters [4, 17]: 75 | Plant response rating, Lambsquarters [4, 18]: 90 | Lambsquarters plant response rating ([4]; 250 g ai/ha, scale 0 to 100): 90 | Plant response rating, Pigweed [5, 16]: 65 | Plant response rating, Pigweed [5, 17]: 80 | Plant response rating, Pigweed [5, 18]: 85 | Pigweed plant response rating ([5]; 250 g ai/ha, scale 0 to 100): 90 | Plant response rating, Soybean (soybean (Glycine max); [11]): 50 | Plant response rating, Soybean (soybean (Glycine max); [12]): 65 | Plant response rating, Soybean (soybean (Glycine max); [13]): 70 | Soybean plant response rating (soybean (Glycine max); [14]): 80 | Soybean plant response rating (0 to 100 scale) (soybean (Glycine max); [15]): 0 | Plant response rating, Velvetleaf [6, 11]: 55 | Plant response rating, Velvetleaf [6, 12]: 75 | Plant response rating, Velvetleaf [6, 13]: 85 | Velvetleaf plant response rating [6, 14]: 90 | Velvetleaf plant response rating (0 to 100 scale) [6, 15]: 0 | Plant response rating, Wheat [7, 11]: 0 | Plant response rating, Wheat [7, 12]: 0 | Plant response rating, Wheat [7, 13]: 0 | Wheat plant response rating [7, 14]: 5 | Wheat plant response rating (0 to 100 scale) [7, 15]: 0 | Plant response rating, Oat, Wild (wild oat (Avena fatua); [16]): 5 | Plant response rating, Oat, Wild (wild oat (Avena fatua); [17]): 5 | Plant response rating, Oat, Wild (wild oat (Avena fatua); [18]): 10 | Oat, Wild plant response rating (wild oat (Avena fatua); 250 g ai/ha, scale 0 to 100): 10 | Plant response rating, Canarygrass [8, 16]: 0 | Plant response rating, Canarygrass [8, 17]: 0 | Plant response rating, Canarygrass [8, 18]: 0 | Canarygrass plant response rating ([8]; 250 g ai/ha, scale 0 to 100): 0 | Plant response rating, Chickweed [9, 16]: 55 | Plant response rating, Chickweed [9, 17]: 60 | Plant response rating, Chickweed [9, 18]: 65 | Chickweed plant response rating ([9]; 250 g ai/ha, scale 0 to 100): 90 | Plant response rating, Windgrass [10, 16]: 0 | Plant response rating, Windgrass [10, 17]: 0 | Plant response rating, Windgrass [10, 18]: 0 | Windgrass plant response rating ([10]; 250 g ai/ha, scale 0 to 100): 5

Source: patent US8952024B2, “Herbicidal pyrimidone derivatives” (E I du Pont de Nemours and Company, priority 2009, dated 2015)
